{"source": "patent US20030162777A1", "about": "“Novel N-acylated heterocycles” (Recordati S.A., priority 2001, published 2003)", "key": {"[1]": {"target": "T1, 5-HT1A receptors (Rattus norvegicus, UniProt P19327)", "T1 construct": "from tissue; host or cells: whole animal: male Sprague-Dawley rats (post-synaptic 5-HT1A receptors)", "T1 sequence (P19327 1-422)": "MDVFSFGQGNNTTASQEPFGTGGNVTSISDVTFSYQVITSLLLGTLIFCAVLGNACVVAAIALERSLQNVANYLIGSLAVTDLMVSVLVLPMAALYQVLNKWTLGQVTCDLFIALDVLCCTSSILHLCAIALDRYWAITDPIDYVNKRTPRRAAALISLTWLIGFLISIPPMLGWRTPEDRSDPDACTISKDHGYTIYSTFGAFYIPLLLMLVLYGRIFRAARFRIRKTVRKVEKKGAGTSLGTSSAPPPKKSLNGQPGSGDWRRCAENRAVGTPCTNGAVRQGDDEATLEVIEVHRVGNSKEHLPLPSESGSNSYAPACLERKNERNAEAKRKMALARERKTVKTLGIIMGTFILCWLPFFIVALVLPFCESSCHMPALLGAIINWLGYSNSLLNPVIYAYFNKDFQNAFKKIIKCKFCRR", "test": "Inhibition of stereotypy (rhythmic forepaw treading) induced by 8-OH-DPAT in rats (post-synaptic antagonism)", "assay_type": "in vivo", "conditions": "1 mg/kg p.o.; for inhibition at 1 mg/kg: rat", "method": "The inhibitory effect of 5-HT1A-receptor antagonists on stereotyped forepaw treading induced in rats by subcutaneous injection of 8-OH-DPAT was evaluated by the method of Tricklebank (Tricklebanket al., Eur. J. Pharmacol., 117: 15, 1985) with minor modifications as described below.\nMale Sprague-Dawley rats [Crl: CD° (SD) BR] weighing 150-175 g from Charles River Italia were used. The animals were housed with free access to food and water and maintained on a forced 12-hour-light/12-hour-dark cycle at 22-24° C. of temperature. On the day of the experiment, the rats were placed singly in clear plastic containers, 10-15 minutes before administration of the vehicle or compounds to be tested. For evaluation of antagonistic activity after oral administration, the compounds were administered 0.5, 1 and 4 hours before induction of stereotypy by 8-OH-DPAT (1 mg/kg subcutaneously). Observation sessions lasted 30 seconds and began 3 minutes after 8-OH-DPAT treatment and were repeated every 3 minutes over a period of 15 minutes.\nThe appearance of the symptom induced by postsynaptic stimulation of 5-HT1A receptors was noted, and the intensity was scored using an intensity scale in which: 0=absent, 1=equivocal, 2=present and 3=intense. Behavioural scores for treated rats were accumulated throughout the observation time (5 observation periods) and expressed as mean values of 4 rats/dose. Change in mean values of treated animals in comparison with control (vehicle) group, expressed as per-cent inhibition, was used in order to quantify the antagonistic activity."}, "[2]": {"system": "anaesthetised rats", "test": "Effects on rhythmic bladder-voiding contractions induced by bladder filling in anaesthetised rats", "assay_type": "in vivo, rat", "conditions": "intravenous administration, urethane-anaesthetised rats", "method": "Female Sprague-Dawley rats weighing 225-275 g (Crl: CDo Br, Charles River Italia) were used. The animals were housed with free access to food and water and maintained on a forced 12-hour alternating light-dark cycle at 22-24° C. for at least one week, except during the experiment. The activity on rhythmic bladder voiding contractions was evaluated according to the method of Dray (Dray J., Pharmacol. Methods, 13:157, 1985), with some modifications as in Guarneri (Guarneri, Pharmacol. Res. 27:173, 1993). Briefly, the rats were anaesthetised by subcutaneous injection of 1.25 g/kg (5 ml/kg) urethane, after which the urinary bladder was catheterised via the urethra using PE 50 polyethylene tubing filled with physiological saline. The catheter was tied in place with a ligature around the external urethral orifice and was connected to conventional pressure transducers (Statham P23 ID/P23 XL). […] The bladder was then filled via the recording catheter by incremental volumes of warm (37° C.) saline until reflex bladder-voiding contractions occurred (usually 0.8-1.5 ml). For intravenous injection of bioactive compounds, PE 50 polyethylene tubing filled with physiological saline was inserted into the jugular vein.\nFrom the cystometrogram, the number of contractions recorded 15 minutes before (basal values) and after treatment, as well as the mean amplitude of these contractions (mean height of the peaks in mmHg), was evaluated.\nSince most compounds produced an effect that was relatively rapid in onset and led to a complete cessation of bladder contractions, bioactivity was conveniently estimated by measuring the duration of bladder quiescence (i.e. the length of the time during which no contractions occurred). The number of tested animals showing a reduction in the number of contractions higher than 30% of that observed in the basal period was recorded too.\nThe extrapolated doses which induced a reduction in the number of contractions greater than 30% in 50% of the treated rats (ED50) were evaluated by the method of Bliss (Bliss C. I., Quart J. Pharm. Pharmacol. 11, 192-216, 1938)."}}, "data": [{"smiles": "O=C(C1CCCCC1)N1c2ccccc2CCC1CN1CCN(c2cccc3[nH]ccc23)CC1", "note": "(racemic) [Example 1, (±)1-(1-cyclohexanecarbonyl-1,2,3,4-tetrahydroquinoline-2-ylmethyl)-4-(4-indolyl)piperazine]", "values": [{"measurement": "post-synaptic 5-HT1A-receptor antagonist activity (in words)", "setting": "[1]; rats", "value": "significant and long-lasting post-synaptic 5-HT1A-receptor antagonist activity"}, {"measurement": "inhibition at 1 mg/kg", "setting": "[1]; 0.5 h before 8-OH-DPAT (1 mg/kg s.c.)", "value": 91, "unit": "%"}, {"measurement": "inhibition at 1 mg/kg", "setting": "[1]; 1 h before 8-OH-DPAT (1 mg/kg s.c.)", "value": 91, "unit": "%"}, {"measurement": "inhibition at 1 mg/kg", "setting": "[1]; 4 h before 8-OH-DPAT (1 mg/kg s.c.)", "value": 96, "unit": "%"}, {"measurement": "ED50", "setting": "[2]; Rattus norvegicus, read-out: ED50 frequency (extrapolated dose inducing a reduction of the number of contractions >30% in 50% of treated rats)", "value": 0.064, "unit": "mg/kg"}, {"measurement": "ED10 min (extrapolated dose inducing 10 minutes of disappearance of the contractions)", "setting": "[2]", "value": 0.107, "unit": "mg/kg"}]}]}
